Assay results from patent publication US20190308956A1, “PIPERAZINE DERIVATIVES AS ANTIVIRAL AGENTS WITH INCREASED THERAPEUTIC ACTIVITY” (SERVICIO ANDALUZ DE SALUD, priority 2016, published 2019).

Tests used:
[1] = system: Acinetobacter baumannii strains resistant to colistine; assay: Minimal inhibitory concentration (MIC), microdilution in MHBII; assay type: cell-based; conditions: 5×10^5 CFU/ml, 18 h; for CMI (MIC) Ab 14: strain Ab 14, MHBII; for CMI (MIC) Ab 11: strain Ab 11, MHBII; for CMI (MIC) Ab 17: strain Ab 17, MHBII; for CMI (MIC) Ab 21R: strain Ab 21R; for CMI (MIC) Ab 21R / CMI (MIC) Ab 22P: MHBII; for CMI (MIC) Ab 24: strain Ab 24, MHBII; for CMI (MIC) Ab 22P: strain Ab 22P
Description: (§1) All of the strains used were Acinetobacter baumannii strains resistant to colistine: Resistance (R)≥4 Sensibility (S)≤2—All of these strains have been disclosed in Valencia R, Arroyo L A, Conde M, Aldana J M, Torres M J, Fernandez-Cuenca F, et al. Nosocomial outbreak of infection with pan-drug-resistant Acinetobacter baumannii in a tertiary care university hospital. Infection control and hospital epidemiology. 2009; 30(3):257-63. The specific strains used were the following: 1, 10, 11, 14, 16, 17, 19, 20, 21R, 22P, 24, 99 and 113.
Microdilution in cell medium Mueller Hinton Broth II (MHBII). This technique was carried out solely in those piperazines which presented inhibitory activity in the screening study.
We used decreasing concentrations of each piperazine derivative (from 50 μM -0.05 μM) in a concentration of 5×10^5 CFU/ml of each strain of A. baumannii in 96 well plates. These plates were incubated for 18 hours at a temperature 37° C.

[2] = system: Acinetobacter baumannii strains resistant to colistine; assay: Screening of inhibition of bacterial growth at 50 μM; assay type: cell-based; conditions: 5×10^5 CFU/ml, 18 h; for Screening, growth inhibition Ab 14: strain Ab 14, 50 μM; for Screening, growth inhibition Ab 11: strain Ab 11, 50 μM; for Screening, growth inhibition Ab 17: strain Ab 17, 50 μM; for Screening, growth inhibition Ab 21R: strain Ab 21R; for Screening, growth inhibition Ab 21R / Screening, growth inhibition Ab 22P: 50 μM; for Screening, growth inhibition Ab 24: strain Ab 24, 50 μM; for Screening, growth inhibition Ab 22P: strain Ab 22P
Description: as §1
Evaluation of the inhibition of the bacterial growth of the 4 families of piperazines derivatives was performed by using a final concentration of 50 μM of each piperazine derivative in a concentration of 5×10^5 CFU/ml of each strain of A. baumannii in 96-well plates.
These plates were incubated for 18 hours at 37° C.

HAdV5-GFP [3] = assay: Plaque assay, HAdV5-GFP in 293β5 cells; assay type: cell-based; conditions: for inhibition at 10 µM: read-out: Percentage of plaque formation inhibition, HAdV5-GFP, 10 μM, 293β5 cell line
Description: 1.5. Plaque assay. For low MOI infections, active compounds were further evaluated in a plaque assay. 293β5 cells were seeded in 6-well plates at 4×10^5 cells per well in duplicate for each condition. When cells reached 80-90% confluency, they were infected with HAdV5-GFP or HAdV16-GFP (0.06 vp/cell) and rocked for 2 h at 37° C. The inoculum was removed and the cells were washed once with PBS. The cells were then carefully overlaid with 4 ml/well of equal parts of 1.6% […] Difco Agar Noble (Becton, Dickinson & Co, Sparks, MD) and 2× EMEM (BioWhittaker) supplemented with 2x penicillin/streptomycin, 2× L-glutamine and 10% FBS. The mixture also contained compound in concentrations ranging from 5 to 1 μM. Following incubation for 7 days at 37° C., plates were scanned with a Typhoon 9410 imager (GE Healthcare Life Sciences), and plaques were quantified with ImageJ.43
For the plaque assay 293β5 cells were infected with HAdV5-GFP (in the presence of compound at 10 μM) (Table 2). From this generation of compounds, our primary screening identified 4 compounds (12, 13, 22 and 25) that inhibited HAdV5-GFP plaque formation >90% compared to a control with the same volume of DMSO.

HAdV5-GFP [4] = assay: Entry assay, HAdV5-GFP in A549 cells (GFP expression); assay type: cell-based
Description: 1.3. Entry assay. An initial rapid screening was performed using human A549 epithelial cells (3×10^5 cells/well in Corning black wall, clear bottom 96-well plates) infected with HAdV5-GFP (2,000 vp/cell) in the presence of 50 μM of the candidate antiviral compounds. Virus was preincubated with the compounds (individual and mixed) for 45 minutes at 4° C., and then added to cells. A standard infection curve was generated in parallel by infecting cells in the absence of compounds using serial two-fold dilutions of virus. All reactions were done in triplicate. Cells, virus and compounds were incubated for 48 h at 37° C. and 5% CO2. Infection, as measured by HAdV-mediated GFP expression, was analyzed using a Typhoon 9410 imager (GE Healthcare Life Sciences), and quantified with ImageQuantTL (GE Healthcare Life Sciences).

A549 cells = assay: Cytotoxicity assay (alamarBlue cell viability); assay type: cell-based, Human
Description: (§2) 1.4. Cytotoxicity assay. The cytotoxicity of the compounds was measured using the AlarmBlue cell viability assay (Invitrogen) according to the manufacturer's instructions. Actively dividing A549 cells were incubated with compounds for 48 h. After the incubation the alamarBlue reagent was added to the cells ( 1/10th alamarBlue reagent in culture medium) for an extra 4 h. The 50% cell cytotoxic concentration (CC50) of the molecules was calculated according to Cheng et al.42 The selectivity index (SI) was evaluated as the ratio of CC50 to IC50, where the IC50 is defined as the concentration of compound that inhibits HAdV infection by 50%.

[5] = Cytotoxicity assay (alamarBlue cell viability); assay type: cell-based, Human; conditions: human, A549 cells
Description: as §2

| Structure (SMILES) | CMI (MIC) Ab 14 [1] [µM] | Screening, growth inhibition Ab 14 [2] [µM] | Inhibition assay in plaque (HAdV5-GFP [3]) | Starting Inhibition assay (HAdV5-GFP [4]) | CMI (MIC) Ab 11 [1] [µM] | CMI (MIC) Ab 17 [1] [µM] | CMI (MIC) Ab 21R [1] [µM] | CMI (MIC) Ab 24 [1] [µM] | Screening, growth inhibition Ab 11 [2] [µM] | Screening, growth inhibition Ab 17 [2] [µM] | Screening, growth inhibition Ab 21R [2] [µM] | Screening, growth inhibition Ab 24 [2] [µM] | CC50 (A549 cells) [µM] | CMI (MIC) Ab 22P [1] [µM] | Screening, growth inhibition Ab 22P [2] [µM] | inhibition at 10 µM (HAdV5-GFP [3]) [%] | melting point [°C] | CC50 at 48 h ([5]; 48 h) [µM] | CC50 at 48 h [5] [µM] |
| --- | --- | --- | --- | --- | --- | --- | --- | --- | --- | --- | --- | --- | --- | --- | --- | --- | --- | --- | --- |
| CC1CN(C(=O)OC(C)(C)C)CCN1C(=S)Nc1cc(C(F)(F)F)cc(C(F)(F)F)c1 (stereo not drawn) [Vip 592] | 3.12 | <50 | 11.11 ± 19.25 | 71.76 ± 15.00 |  |  |  |  |  |  |  |  |  |  |  |  |  |  |  |
| Cc1ccc(NC(=S)N2CCN(C(=O)Cc3ccccc3)CC2C)cc1 (stereo not drawn) [Vip 636] |  |  | 13.79 ± 25.70 | 73.72 ± 14.39 | 50 | 25 | 25 | 50 | <50 | <50 | <50 | <50 |  |  |  |  |  |  |  |
| CC1CN(C(=O)Cc2ccccc2)CCN1C(=S)Nc1ccc(Cl)cc1 (stereo not drawn) [Vip 629] | 25 | <50 | 84.56 ± 15.72 | 59.51 ± 17.45 | 25 | 25 | 50 | 50 | <50 | <50 | <50 | <50 | 175 |  |  |  |  |  |  |
| CC1CN(C(=O)Cc2ccccc2)CCN1C(=S)Nc1ccc(C(F)(F)F)cc1 (stereo not drawn) [Vip 633] |  |  | 45.36 ± 16.56 | 43.12 ± 17.16 | 25 | 25 |  | 50 | <50 | <50 |  | <50 |  |  |  |  |  |  |  |
| COc1ccc(NC(=S)N2CCN(C(=O)OC(C)(C)C)CC2C)cc1 (stereo not drawn) [Vip 590] | >50 | <50 | 36.55 ± 30.13 | 62.79 ± 17.03 |  |  |  |  |  |  |  |  |  |  |  |  |  |  |  |
| CC1CN(C(=O)OC(C)(C)C)CCN1C(=S)Nc1ccc(C#N)cc1 (stereo not drawn) [Vip 584] | 50 | <50 | 88.91 ± 15.92 | 58.11 ± 25.72 | 50 | 25 | 50 | 50 | <50 | <50 | <50 | <50 | 175 | 50 | <50 |  |  |  |  |
| CC1CN(C(=O)OC(C)(C)C)CCN1C(=S)Nc1ccc(Cl)cc1 (stereo not drawn) [Vip 580] | 50 | <50 | 73.43 ± 4.19 | 64.11 ± 16.81 | 50 | 50 | 50 | 50 | <50 | <50 | <50 | <50 | 167 | 50 | <50 |  |  |  |  |
| COc1ccc(NC(=S)N2CCN(C(=O)Cc3ccccc3)CC2C)cc1 (stereo not drawn) [Vip 637] |  |  | 29.36 ± 36.56 | 61.99 ± 17.15 |  | 50 |  | >50 |  | <50 |  | <50 |  |  |  |  |  |  |  |
| Cc1ccc(NC(=S)N2CCN(C(=O)OC(C)(C)C)CC2C)cc1 (stereo not drawn) [Vip 591] | >50 | <50 | 49.11 ± 4.73 | 56.61 ± 17.69 |  | 50 | 50 |  |  | <50 | <50 |  |  |  |  |  |  |  |  |
| O=C(c1cc2ccccc2o1)N1CCN(C(=O)Nc2ccc(C(F)(F)F)cc2)C(c2ccccc2)C1 (stereo not drawn) [Compound 61, 4-(Benzofuran-2-carbonyl)-2-phenyl-1-[(4-trifluoromethylphenyl)aminocarbonyl]piperazine] |  |  |  |  |  |  |  |  |  |  |  |  |  |  |  | 100 | 134 to 136 | 70.7 ± 21.4 |  |
| CC1CN(C(=O)OC(C)(C)C)CCN1C(=S)Nc1ccc(C(F)(F)F)cc1 (stereo not drawn) [Vip 604] |  |  | 73.43 ± 22.49 | 43.24 ± 17.18 |  |  | 25 | 25 |  |  | <50 | <50 |  | 25 | <50 |  |  |  |  |
| CC(C)(C)C(=O)N1CCN(C(=O)Nc2ccc(C#N)cc2)C(c2ccccc2)C1 (stereo not drawn) [Compound 57, 1-[(4-Cyanophenyl)aminocarbonyl]-2-phenyl-4-pivaloylpiperazine] |  |  |  |  |  |  |  |  |  |  |  |  |  |  |  | 84 ± 6.75 | 151 to 153 | 147 ± 38 |  |
| CC1CN(C(=O)OC(C)(C)C)CCN1C(=O)Nc1cc(C(F)(F)F)ccc1Cl (stereo not drawn) [Compound 30, 4-tert-Butoxycarbonyl-1-[(2-chloro-5-trifluoromethylphenyl)aminocarbonyl]-2-methylpiperazine] |  |  |  |  |  |  |  |  |  |  |  |  |  |  |  | 91 to 100 | 98 to 100 | 63.5 ± 8.22 |  |
| CC1CN(C(=O)c2cc3ccccc3o2)CCN1C(=O)Nc1ccc(F)cc1 (stereo not drawn) [Compound 35, 4-(Benzofuran-2-carbonyl)-1-[(4-fluorophenyl)aminocarbonyl]-2-methylpiperazine] |  |  |  |  |  |  |  |  |  |  |  |  |  |  |  | 91 to 100 | 93 to 95 | 221 ± 29 | > 200 |
| CC1CN(C(=O)Cc2ccccc2)CCN1C(=S)Nc1ccc(F)cc1 (stereo not drawn) [Vip 638] |  |  | 28.90 ± 23.21 | 72.06 ± 14.91 |  |  |  | 50 |  |  |  | <50 |  |  |  |  |  |  |  |
| CC1CN(C(=O)OC(C)(C)C)CCN1C(=O)Nc1ccc(Cl)c(C(F)(F)F)c1 (stereo not drawn) [Compound 31, 4-tert-Butoxycarbonyl-1-[(4-chloro-3-trifluoromethylphenyl)aminocarbonyl]-2-methylpiperazine] |  |  |  |  |  |  |  |  |  |  |  |  |  |  |  | 91 to 100 | 157 to 159 | 20.8 ± 0.64 |  |
